PubChem BioAssay (NCI)
Values joined by “and” are separate entries in the source; they are usually repeats but may differ in a detail not shown here. Equal values may be shown once.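 Results reflect a 48-hour exposure of cells in 96-well plates to compound at five concentrations. GI50: concentration for 50% inhibition of growth. At the TGI there is no net growth.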

How the values were obtained:
Assay in all cases: NCI anticancer screen, dose series, 48 h
CAKI-1 renal = test system: CAKI-1 renal
CCRF-CEM leukemia = test system: CCRF-CEM leukemia
K-562 leukemia = test system: K-562 leukemia
MCF7 breast = test system: MCF7 breast
MDA-MB-231 breast = test system: MDA-MB-231 breast
NCI-H23 lung = test system: NCI-H23 lung
OVCAR-4 ovarian = test system: OVCAR-4 ovarian
OVCAR-5 ovarian = test system: OVCAR-5 ovarian
SNB-19 CNS = test system: SNB-19 CNS
SNB-75 CNS = test system: SNB-75 CNS

Row | Compound | GI50 (CAKI-1 renal) | GI50 (CCRF-CEM leukemia) | TGI (CCRF-CEM leukemia) | TGI (K-562 leukemia) | GI50 (MCF7 breast) | TGI (MCF7 breast) | GI50 (MDA-MB-231 breast) | TGI (MDA-MB-231 breast) | GI50 (NCI-H23 lung) | TGI (NCI-H23 lung) | GI50 (OVCAR-4 ovarian) | TGI (OVCAR-4 ovarian) | GI50 (OVCAR-5 ovarian) | TGI (SNB-19 CNS) | TGI (SNB-75 CNS) | TGI (CAKI-1 renal) | GI50 (K-562 leukemia) | TGI (OVCAR-5 ovarian) | GI50 (SNB-19 CNS) | GI50 (SNB-75 CNS)
1 | O=C1/C(=C\c2ccc([N+](=O)[O-])cc2)CS(=O)(=O)C/C1=C/c1ccc([N+](=O)[O-])cc1 | 0.121 µM | 0.0128 µM | 0.133 µM | > 100 µM | 0.157 µM | 2.12 µM | 0.36 µM | 0.533 µM | 0.252 µM | 0.651 µM and 5.12 µM | 0.207 µM | 0.612 µM and 1.37 µM | 0.126 µM | 22.2 µM | 53.2 µM |  |  |  |  | 
2 | CCCCCCCCCCCCNC(=O)[C@H]1CSC(c2cc(Br)cs2)N1 (stereo not given in full) | 0.971 µM | 1.03 µM | 2.51 µM | 2.46 µM | 2.16 µM | 8.82 µM | 0.83 µM | 1.61 µM | 1.53 µM | 5.11 µM | 0.917 µM | 1.95 µM | 1.94 µM | 8.49 µM | 1.56 µM | 2.04 µM | 1.13 µM | 6.49 µM | 2.48 µM | 0.851 µM
3 | [CH3][Sn]([CH3])([CH3])[O]C(=O)C(O)c1ccccc1 (stereo not given) | 4.95 µM | 4.84 µM | > 73.5 µM | > 100 µM | > 100 µM | > 100 µM | 39.2 µM | > 100 µM | 6.68 µM | 61.8 µM | 7.51 µM | > 100 µM | 9.91 µM | > 89.2 µM | 54.3 µM | 34.5 µM | 5.27 µM | 76.4 µM | 17 µM | 5.61 µM
4 | O=Cc1c[nH]c2ccc(-c3csc4ccccc34)cc12 | 1.93 µM | 2.64 µM | 10.6 µM | > 100 µM | 3.48 µM | > 100 µM | 6.28 µM | > 100 µM | 18.2 µM | > 100 µM | 5.12 µM | > 100 µM | 88.1 µM | > 100 µM | 5.88 µM | > 100 µM | 1.69 µM | > 100 µM | 5.98 µM | 1.25 µM
5 | O=C(CCCCCNC1=CC(=O)c2ccccc2C1=O)NCCC[Te]c1ccccc1 | 1.7 µM | 0.251 µM | 0.774 µM | 3.83 µM | 0.327 µM | 4.66 µM | 0.236 µM | 0.606 µM | 0.336 µM | 1.48 µM | 2.21 µM | 7.59 µM | 0.362 µM | 9.65 µM | 1.48 µM | 3.93 µM | 0.72 µM | 1.48 µM | 1.64 µM | 0.29 µM
6 | COc1ccc(-c2nnc(Nc3nc(O)c(C4=c5cc(OC(F)(F)F)ccc5=NC4=O)s3)o2)cc1 | 12.4 µM | 25.5 µM | 51.1 µM | 30.4 µM | 39.7 µM | > 100 µM | 13.9 µM | 30.3 µM | 14.1 µM | 30.6 µM | 46.3 µM | > 100 µM | 18.2 µM | 31.2 µM | 36.8 µM | 69.2 µM | 14.4 µM | 43.6 µM | 9.67 µM | 15.3 µM
7 | CC(=O)Nc1c(I)c(C(=O)O)c(I)c(N(C)C(C)=O)c1I | > 100 µM | > 100 µM | > 100 µM | > 100 µM | > 100 µM | > 100 µM | > 100 µM | > 100 µM | > 100 µM | > 100 µM | > 100 µM | > 100 µM | > 100 µM | > 100 µM | > 100 µM | > 100 µM | > 100 µM | > 100 µM | > 100 µM | > 100 µM
8 | O=C(NC1CCNCC1)c1[nH]ncc1NC(=O)c1c(Cl)cccc1Cl | 14.9 µM and 4.09 µM | 0.331 µM and 0.335 µM | > 100 µM | > 100 µM | 0.198 µM and 0.18 µM | > 100 µM | 0.312 µM and 0.276 µM | 2.07 µM and > 3.95 µM | 1.03 µM and 0.393 µM | 9.87 µM and 3.23 µM | 0.402 µM and 0.383 µM | 14 µM and > 10 µM | 0.348 µM and 0.282 µM | > 60 µM | 0.766 µM and 0.674 µM | > 100 µM | 0.476 µM and 0.403 µM | > 100 µM | 0.361 µM and 0.336 µM | 0.249 µM and 0.218 µM
9 | Cc1cc(NS(=O)(=O)c2ccc(NC(=O)COc3ccc(-c4cc5ccccc5[nH]4)cc3)cc2)no1 | 2.57 µM | 2.13 µM | > 100 µM | > 100 µM | 2.08 µM | 4.69 µM | 1.66 µM | 4.37 µM | 1.91 µM | 5 µM | 1.53 µM | 3.98 µM | 2.26 µM | 8.69 µM | 4.68 µM | 9.28 µM | 2.06 µM | 5.68 µM | 2.23 µM | 1.5 µM
10 | Cc1ccc2nc3sc(=O)sc3nc2c1 |  |  | > 100 µM | 75.6 µM |  | 31.4 µM |  | 32.1 µM |  | 42.5 µM |  | 26.8 µM |  | 36.7 µM | 64.8 µM | 30 µM |  | 30.8 µM |  | 
11 | O=NNc1ccc(Sc2ccc3ccccc3c2)cn1 |  |  | 59.6 µM | > 100 µM |  | > 100 µM |  | > 100 µM |  | > 100 µM |  | > 100 µM |  | > 100 µM | > 100 µM | > 100 µM |  | > 100 µM |  | 
12 | O=C1c2ccccc2-c2c1c1c(O)cccc1n2CCCc1ccccc1 | 24.9 µM | 24.1 µM | > 100 µM | > 100 µM | 48.4 µM | > 100 µM | 70 µM | > 100 µM | 18.6 µM | > 100 µM | 87.7 µM | > 100 µM | 64 µM | > 100 µM | > 100 µM | > 100 µM | 22.7 µM | > 100 µM | 85.2 µM | 51.7 µM
13 | COc1cccc(C(C#N)NC23CC4CC(CC(C4)C2)C3)c1 (stereo not given) |  |  | > 100 µM | > 100 µM |  | > 100 µM |  | > 100 µM |  | > 100 µM |  | > 100 µM |  | > 100 µM | > 100 µM | > 100 µM |  | > 100 µM |  | 
14 | COc1ccc(Oc2nc(Nc3ccc(N4CCOCC4)cc3)ncc2NC(=O)Nc2cc(OC)cc(OC)c2)cc1 | 4.24 µM | > 33.3 µM | > 33.3 µM | > 33.3 µM | 4.97 µM | > 33.3 µM | 0.992 µM | 3.33 µM | 2.69 µM | 23.4 µM | 2.91 µM | 10.9 µM | 11.6 µM | 28.8 µM | 18.2 µM | 13.5 µM | 4.66 µM | > 33.3 µM | 4.66 µM | 1.65 µM
15 | Cc1ccc(C2NC(=S)N3C(c4ccc(C)cc4)NC(=S)N23)cc1 (stereo not given) | 2.68 µM | 2.46 µM | 10.2 µM | 12 µM | 2.73 µM | 12.9 µM | 9.16 µM | 24 µM | 5.29 µM | 17.9 µM | 9.89 µM | 21.9 µM | 14.7 µM | 17.7 µM | 12.1 µM | 7.01 µM | 1.01 µM | 28.2 µM | 5.06 µM | 2.87 µM
